# Data reported in patent US11412737B2, “Mixtures of beflubutamid or optically enriched forms thereof with a second herbicide” (FMC Corporation, priority 2016, dated 2022).
# Assays:
# [1] = system: Annual bluegrass (POAAN); test: post-emergence test, weed control; format: in vivo, Poa annua; conditions: post-emergent, 28 DAT, height 1-2 cm, rate g ai/ha by row: r7 94, r8 125, r9 188, r10 125, r11 250, r12 94+125, r13 125+125, r14 188+125, r15 94+250, r16 125+250, r17 188+250
# Protocol: (§1) Test compositions containing the test compounds were diluted with water to provide the appropriate test rate concentrations.
# (§2) For post-emergence testing, seeds of each species for each rate of application of each herbicide solution were planted in 7.5 cm×7.5 cm plastic pots filled with potting soil. The seeds were germinated and the resulting plants were allowed to grow in a greenhouse until they reached a growth stage, such as height, suitable for testing. Treatments were applied using compressed air in a track spray chamber at 30 gallons/acre (280 L/ha) using a TeeJet 8001E nozzle at 40 psi (2.76 bars). Pots of post-emergent treated plants were returned to the greenhouse and not watered for 24 hours after treatment. Thereafter they were regularly watered and fertilized for the duration of the test.
# (§3) The control of weeds was evaluated in each experimental test at 21 for wheat and 28 days after treatment (DAT) for all species. Data were analyzed using Minitab software at 95% confidence interval. The results, shown as an average of the replications, were compared with results observed in untreated control flats in the same tests. Percent control was determined by a method similar to the 0 to 100 rating system disclosed in “Research Methods in Weed Science,” 2nd ed., B. Truelove, Ed.; Southern Weed Science Society; Auburn University, Auburn, Ala., 1977. The rating system is as follows in Table 1.
# [2] = system: Cheat grass (BROSE); test: post-emergence test, weed control; format: in vivo; conditions: post-emergent, 28 DAT, height 7 cm, rate g ai/ha by row: r7 94, r8 125, r9 188, r10 125, r11 250, r12 94+125, r13 125+125, r14 188+125, r15 94+250, r16 125+250, r17 188+250
# Protocol: as §1, §2, §3
# [3] = system: Shattercane (SOBIA); test: post-emergence test, weed control; format: in vivo; conditions: post-emergent, 28 DAT, height 8 cm; rate g ai/ha by row: r25 94, r26 125, r27 188, r28 125, r29 250, r30 94+125, r31 125+125, r32 188+125, r33 94+250, r34 125+250, r35 188+250
# Protocol: as §1, §2, §3
# [4] = system: Common ragweed (AMBEL); test: post-emergence test, weed control; format: in vivo; conditions: post-emergent, 28 DAT, height 3-4 cm, rate g ai/ha by row: r7 94, r8 125, r9 188, r10 125, r11 250, r12 94+125, r13 125+125, r14 188+125, r15 94+250, r16 125+250, r17 188+250
# Protocol: as §1, §2, §3
# [5] = system: Redrice (ORYSA); test: post-emergence test, weed control; format: in vivo; conditions: post-emergent, 28 DAT; for percentage of weed control, ORYSA: height 8 cm, rate g ai/ha by row: r25 94, r26 125, r27 188, r28 125, r29 250, r30 94+125, r31 125+125, r32 188+125, r33 94+250, r34 125+250, r35 188+250
# Protocol: as §1, §2, §3
# [6] = system: Rice flatsedge (CYPIR); test: post-emergence test, weed control; format: in vivo; conditions: post-emergent, 28 DAT, height 1-2 cm, rate g ai/ha by row: r25 94, r26 125, r27 188, r28 125, r29 250, r30 94+125, r31 125+125, r32 188+125, r33 94+250, r34 125+250, r35 188+250
# Protocol: as §1, §2, §3
# [7] = system: Large crabgrass (DIGSA); test: post-emergence test, weed control; format: in vivo; conditions: post-emergent, 28 DAT; BFL at 188 g/ha, DCI at 125 g/ha, combination of both
# Protocol: as §1, §2, §3
# [8] = system: Green foxtail (SETVI); test: post-emergence test, weed control; format: in vivo, Setaria viridis; conditions: post-emergent, 28 DAT, BFL at 187.5 g, combination of both
# [9] = system: Common lambsquarters (CHEAL); test: pre-emergence test, weed control; format: in vivo, Chenopodium album; conditions: pre-emergent, 28 DAT
# Procedure, shortened: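 Seeds sown in top-soil flats and watered, then sprayed pre-emergence at 30 gallons per acre from a nozzle 10.5 inches above soil; flats kept in the greenhouse with regular watering and fertilizing. Percent control (0–100 scale versus untreated flats) scored at 21 DAT for wheat and 28 DAT for all species, averaged over replicates.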
# [10] = system: Silky windgrass (APSEV); test: post-emergence test, weed control; format: in vivo; conditions: post-emergent, 28 DAT, height 1-1.5 cm, rate g ai/ha by row: r25 94, r26 125, r27 188, r28 125, r29 250, r30 94+125, r31 125+125, r32 188+125, r33 94+250, r34 125+250, r35 188+250
# [11] = system: Wild oat (AVEFA); test: post-emergence test, weed control; format: in vivo, Avena fatua; conditions: post-emergent, 28 DAT; for percentage of weed control, AVEFA: height 11 cm, rate g ai/ha by row: r25 94, r26 125, r27 188, r28 125, r29 250, r30 94+125, r31 125+125, r32 188+125, r33 94+250, r34 125+250, r35 188+250; for control of wild oats (AVEFA): DCI at 250 g/ha
# Protocol: as §1, §2, §3
# [12] = BFL at 187.5 g, PYX at 90 g, combination of both
smiles,measurement,setting,value
"CCC(Oc1ccc(F)c(C(F)(F)F)c1)C(=O)NCc1ccccc1 (racemic) [BFL, 2-[4-fluoro-3-(trifluoromethyl)phenoxy]-N-(phenylmethyl)butanamide]","percentage of weed control, POAAN",[1]; 94 g ai/ha,0%
same,"percentage of weed control, POAAN",[1]; 188 g ai/ha,2%
same,"percentage of weed control, BROSE",[2]; 94 g ai/ha,0%
same,"percentage of weed control, BROSE",[2]; 188 g ai/ha,6%
same,"percentage of weed control, SOBIA",[3],0%
same,"percentage of weed control, AMBEL",[4]; 94 g ai/ha,5%
same,"percentage of weed control, AMBEL",[4]; 125 g ai/ha,6%
same,"percentage of weed control, AMBEL",[4]; 188 g ai/ha,12%
same,"percentage of weed control, ORYSA",[5]; 94 g ai/ha,46%
same,"percentage of weed control, ORYSA",[5]; 125 g ai/ha,44%
same,"percentage of weed control, ORYSA",[5]; 188 g ai/ha,28%
same,control of red rice,[5]; [12],69%
same,"percentage of weed control, CYPIR",[6]; 94 g ai/ha,0%
same,"percentage of weed control, CYPIR",[6]; 188 g ai/ha,4%
same,control of large crabgrass (DIGSA),[7],19%
same,control of green foxtail,[8]; PTX at 890 g,54%
same,control of green foxtail,[8]; PYX at 90 g,54%
same,control of lambsquarters (CHEAL),"[9]; BFL at 125 g/ha, DCI at 125 g/ha, combination of both",42%
same,"percentage of weed control, CHEAL","[9]; rate g ai/ha by row: r4 94, r5 50, r6 100, r7 52.5, r8 70, r9 94+52.5, r10 94+70, r11 50+52.5, r12 50+70, r13 100+52.5, r14 100+70",16%
same,"percentage of weed control, APSEV",[10]; 94 g ai/ha,0%
same,"percentage of weed control, APSEV",[10]; 188 g ai/ha,5%
same,"percentage of weed control, AVEFA",[11]; 94 g ai/ha,0%
same,"percentage of weed control, AVEFA",[11]; 188 g ai/ha,5%
same,control of wild oats (AVEFA),"[11]; BFL at 125 g/ha, combination of both",0%
same,control of wild oats,[11]; [12],15%
same,control of wild oats (AVEFA),"[11]; BFL at 188 g/ha, combination of both",5%
